Experimental data: ChEMBL document CHEMBL1201862, “PubChem BioAssay data set” (2004)
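Cells were grown in 96-well plates and exposed to each compound for 48 hours at five concentrations; endpoints were interpolated linearly between bracketing concentrations, or set to the highest concentration if not reached. GI50 marks 50% less growth.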 The source made the active and inactive calls. No stated cut-off is given here; in the data, active = GI50 up to about 1.1 µM and inactive = higher.

Tests used:
Assay in all cases: NCI anticancer screen, dose series, 48 h
[1] = tested on: SF-539
[2] = tested on: PC-3
[3] = tested on: HOP-62
[4] = tested on: SN12C
[5] = tested on: ACHN
[6] = tested on: NCI/ADR-RES
[7] = tested on: NCI-H522
[8] = tested on: IGROV-1
[9] = tested on: M14
[10] = tested on: MDA-N
[11] = tested on: NCI-H23
[12] = tested on: SK-MEL-2
[13] = tested on: OVCAR-5
[14] = tested on: HCT-116
[15] = tested on: CCRF-CEM
[16] = tested on: SK-OV-3
[17] = tested on: U-251
[18] = tested on: COLO 205
[19] = tested on: MCF7
[20] = tested on: MOLT-4
[21] = tested on: 786-0
[22] = tested on: NCI-H460
[23] = tested on: RXF 393
[24] = tested on: DU-145
[25] = tested on: CAKI-1
[26] = tested on: A549
[27] = tested on: TK-10
[28] = tested on: SF-268
[29] = tested on: HL-60
[30] = tested on: UACC-62
[31] = tested on: SK-MEL-28
[32] = tested on: SW-620
[33] = tested on: OVCAR-8
[34] = tested on: HOP-92
[35] = tested on: HCC 2998
[36] = tested on: EKVX
[37] = tested on: KM12
[38] = tested on: SK-MEL-5
[39] = tested on: HT-29
[40] = tested on: HCT-15
[41] = tested on: BT-549
[42] = tested on: UO-31
[43] = tested on: OVCAR-4
[44] = tested on: LOX IMVI
[45] = tested on: SF-295
[46] = tested on: MDA-MB-231
[47] = tested on: OVCAR-3
[48] = tested on: UACC-257
[49] = tested on: SNB-75
[50] = tested on: NCI-H226
[51] = tested on: SNB-19
[52] = tested on: Hs-578T
[53] = tested on: MDA-MB-435
[54] = tested on: A498
[55] = tested on: Malme-3M
[56] = tested on: SR
[57] = tested on: T47D
[58] = tested on: K562
[59] = tested on: RPMI-8226

## CCOc1ccc2nc(NC(=O)C(=O)C3C(=O)C(CC4C(=O)c5ccccc5C4=O)C(=O)CC3(C)C)sc2c1 (stereo unspecified)
[1]
  GI50: > 100 µM (inactive)
[2]
  GI50: 65.8 µM (inactive)
[3]
  GI50: > 100 µM (inactive)
[4]
  GI50: > 100 µM (inactive)
[5]
  GI50: > 100 µM (inactive)
[6]
  GI50: > 100 µM (inactive)
[7]
  GI50: > 100 µM (inactive)
[8]
  GI50: 44 µM (inactive)
[9]
  GI50: > 100 µM (inactive)
[10]
  GI50: > 100 µM (inactive)
[11]
  GI50: 95.1 µM (inactive)
[12]
  GI50: > 100 µM (inactive)
[13]
  GI50: > 100 µM (inactive)
[14]
  GI50: 86.7 µM (inactive)
[15]
  GI50: 30.8 µM (inactive)
[16]
  GI50: > 100 µM (inactive)
[17]
  GI50: > 100 µM (inactive)
[18]
  GI50: > 100 µM (inactive)
[19]
  GI50: > 100 µM (inactive)
[20]
  GI50: 13.5 µM (inactive)
[21]
  GI50: > 100 µM (inactive)
[22]
  GI50: > 100 µM (inactive)
[23]
  GI50: > 100 µM (inactive)
[24]
  GI50: > 100 µM (inactive)
[25]
  GI50: 80 µM (inactive)
[26]
  GI50: 87.5 µM (inactive)
[27]
  GI50: > 100 µM (inactive)
[28]
  GI50: > 100 µM (inactive)
[29]
  GI50: 20.3 µM (inactive)
[30]
  GI50: 90.4 µM (inactive)
[31]
  GI50: > 100 µM (inactive)
[32]
  GI50: > 100 µM (inactive)
[33]
  GI50: > 100 µM (inactive)
[34]
  GI50: 34.6 µM (inactive)
[35]
  GI50: > 100 µM (inactive)
[36]
  GI50: 32.9 µM (inactive)
[37]
  GI50: > 100 µM (inactive)
[38]
  GI50: 96.4 µM (inactive)
[39]
  GI50: > 100 µM (inactive)
[40]
  GI50: > 100 µM
[41]
  GI50: > 100 µM (inactive)
[42]
  GI50: 18.9 µM (inactive)
[43]
  GI50: 56.1 µM (inactive)
[44]
  GI50: > 100 µM (inactive)
[45]
  GI50: > 100 µM (inactive)
[46]
  GI50: 24 µM (inactive)
[47]
  GI50: 66.7 µM (inactive)
[48]
  GI50: > 100 µM (inactive)
[49]
  GI50: > 100 µM (inactive)
[50]
  GI50: > 100 µM (inactive)
[51]
  GI50: > 100 µM (inactive)
[52]
  GI50: > 100 µM (inactive)
[53]
  GI50: > 100 µM (inactive)

## NCCCNCCCNCCCN
[54]
  GI50: > 100 µM (inactive)
[2]
  GI50: > 100 µM (inactive)
[3]
  GI50: > 100 µM (inactive)
[4]
  GI50: > 100 µM (inactive)
[5]
  GI50: > 100 µM (inactive)
[6]
  GI50: > 100 µM (inactive)
[7]
  GI50: 54.3 µM (inactive)
[55]
  GI50: > 100 µM (inactive)
[8]
  GI50: > 100 µM (inactive)
[9]
  GI50: > 100 µM (inactive)
[10]
  GI50: > 100 µM (inactive)
[11]
  GI50: > 100 µM (inactive)
[12]
  GI50: > 100 µM (inactive)
[56]
  GI50: 18.8 µM (inactive)
[13]
  GI50: > 100 µM (inactive)
[14]
  GI50: > 100 µM (inactive)
[16]
  GI50: > 100 µM (inactive)
[17]
  GI50: > 100 µM (inactive)
[18]
  GI50: > 100 µM (inactive)
[19]
  GI50: > 100 µM (inactive)
[20]
  GI50: 14.9 µM (inactive)
[21]
  GI50: > 100 µM (inactive)
[23]
  GI50: > 100 µM (inactive)
[24]
  GI50: > 100 µM (inactive)
[25]
  GI50: > 100 µM (inactive)
[26]
  GI50: > 100 µM (inactive)
[27]
  GI50: > 100 µM (inactive)
[28]
  GI50: 3.48 µM (inactive)
[29]
  GI50: > 100 µM (inactive)
[30]
  GI50: > 100 µM (inactive)
[31]
  GI50: > 100 µM (inactive)
[57]
  GI50: 12.6 µM (inactive)
[32]
  GI50: > 100 µM (inactive)
[33]
  GI50: > 100 µM (inactive)
[35]
  GI50: > 100 µM (inactive)
[36]
  GI50: > 100 µM (inactive)
[37]
  GI50: > 100 µM (inactive)
[58]
  GI50: 25.2 µM (inactive)
[38]
  GI50: > 100 µM (inactive)
[39]
  GI50: > 100 µM (inactive)
[40]
  GI50: > 100 µM
[41]
  GI50: > 100 µM (inactive)
[42]
  GI50: > 100 µM (inactive)
[59]
  GI50: 16.4 µM (inactive)
[43]
  GI50: > 100 µM (inactive)
[44]
  GI50: > 100 µM (inactive)
[45]
  GI50: > 100 µM (inactive)
[46]
  GI50: > 100 µM (inactive)
[47]
  GI50: > 100 µM (inactive)
[48]
  GI50: > 100 µM (inactive)
[50]
  GI50: > 100 µM (inactive)
[51]
  GI50: > 100 µM (inactive)
[53]
  GI50: > 100 µM (inactive)

## COC(=O)C1(CCC(C)=O)CCCCCC1=O (stereo unspecified)
[1]
  GI50: > 100 µM (inactive)
[54]
  GI50: > 100 µM (inactive)
[2]
  GI50: > 100 µM (inactive)
[3]
  GI50: > 100 µM (inactive)
[4]
  GI50: > 100 µM (inactive)
[5]
  GI50: > 100 µM (inactive)
[6]
  GI50: > 100 µM (inactive)
[7]
  GI50: > 100 µM (inactive)
[55]
  GI50: > 100 µM (inactive)
[8]
  GI50: > 100 µM (inactive)
[9]
  GI50: > 100 µM (inactive)
[10]
  GI50: > 100 µM (inactive)
[11]
  GI50: > 100 µM (inactive)
[12]
  GI50: > 100 µM (inactive)
[56]
  GI50: > 100 µM (inactive)
[13]
  GI50: > 100 µM (inactive)
[14]
  GI50: > 100 µM (inactive)
[16]
  GI50: > 100 µM (inactive)
[17]
  GI50: > 100 µM (inactive)
[18]
  GI50: > 100 µM (inactive)
[19]
  GI50: > 100 µM (inactive)
[20]
  GI50: > 100 µM (inactive)
[21]
  GI50: > 100 µM (inactive)
[22]
  GI50: > 100 µM (inactive)
[23]
  GI50: > 100 µM (inactive)
[24]
  GI50: > 100 µM (inactive)
[25]
  GI50: > 100 µM (inactive)
[26]
  GI50: > 100 µM (inactive)
[27]
  GI50: > 100 µM (inactive)
[28]
  GI50: > 100 µM (inactive)
[30]
  GI50: > 100 µM (inactive)
[31]
  GI50: > 100 µM (inactive)
[57]
  GI50: > 100 µM (inactive)
[32]
  GI50: > 100 µM (inactive)
[34]
  GI50: > 100 µM (inactive)
[35]
  GI50: > 100 µM (inactive)
[36]
  GI50: > 100 µM (inactive)
[37]
  GI50: > 100 µM (inactive)
[58]
  GI50: > 100 µM (inactive)
[38]
  GI50: > 100 µM (inactive)
[39]
  GI50: > 100 µM (inactive)
[40]
  GI50: > 100 µM
[41]
  GI50: > 100 µM (inactive)
[42]
  GI50: > 100 µM (inactive)
[59]
  GI50: > 100 µM (inactive)
[43]
  GI50: > 100 µM (inactive)
[44]
  GI50: > 100 µM (inactive)
[45]
  GI50: > 100 µM (inactive)
[46]
  GI50: > 100 µM (inactive)
[47]
  GI50: > 100 µM (inactive)
[48]
  GI50: > 100 µM (inactive)
[49]
  GI50: > 100 µM (inactive)
[50]
  GI50: > 100 µM (inactive)
[51]
  GI50: > 100 µM (inactive)
[53]
  GI50: > 100 µM (inactive)
